Results taken from US8841413B2, “Antidiabetic compounds” (Cadila Healthcare Limited, priority 2006, dated 2014).
Like-named read-outs stand apart in the source and are kept apart here.

Experiments:
[1] = Stability in simulated intestinal fluid; assay type: in vitro ADME; conditions: 2 μM, 37° C., pH 7.5; for half-life: simulated gi fluid, read-out: half-life (t1/2) in simulated intestinal fluid
Procedure: (§1) Reactions were terminated by the addition of TFA/H2O (15 mL, 10% (v/v)). […] The column was equilibrated with TFA/H2O, at a flow rate of 1 mL/min. […] The absorbance was monitored at 206 nm using UV detector and peaks were collected manually prior to ESI-MS analysis.

Human GLP-1 receptor = target: T1, Human GLP-1 receptor (Homo sapiens, UniProt P43220); assay type: cell-based
T1 construct: The full-length cDNA was cloned in pcDNA3.1(+); expressed in transfected cells
Procedure: The novel peptidomimetics were screened for Human GLP-1 receptor (HGLP-1 R) agonist activity (in vitro), using the cAMP cell-based assay, in stably transfected CHO/human GLP1R cells. […] CHO cells were grown in Ham's F12 medium containing L-Glutamine (2 mM), HEPES (25 mM), NaHCO3 (1.1 g/L) and supplemented with NewBorn Calf Serum (NBCS; 10%), Penicillin (50 U/ml (v/v)) and Streptomycin (50 ug/ml (v/v)). Cells were split every 3 days 1:8.
The cDNA encoding the human GLP-1 receptor was isolated by RT-PCR according to standard protocol. The full-length cDNA was cloned in pcDNA3.1(+). […] Clones expressing the receptor were generated by G418 (800 μg/ml active, Sigma) selection. The stable clones were thereafter maintained at 500 ug/ml (G418). The selected clone was used between passages 9-25 for cAMP assays.
The trypsin was inactivated using Ham's F12 medium containing 10% NBCS and the cells were suspended in 2 ml of complete medium. […] The medium was aspirated off from the 12 well plate and the cells were washed once using Ham's F12 (plain). […] The cells were incubated with the test compounds for 30 min in humidified atmosphere and 37° C. After the incubation, the medium was removed and cells were washed once with plain Ham's F12. Subsequently, the cells were lysed by adding 500 ul of ice cold 0.1 N HCl to each well and shaking for 30 minutes at 200 rpm. […] The total cAMP was estimated from the sample according to the manufacturer's protocol using Cyclic AMP immunoassay kit (R&D systems, Minneapolis. MN). The remaining supernatant is used to determine the protein concentration using micro BCA (Sigma). Data is calculated as percent of control (Vehicle: water) and expressed as Mean±SD.

[2] = Stability against liver microsomes; assay type: in vitro ADME, human; conditions: 2 μM, 37° C.; for half-life: human, microsomes, read-out: half-life (t1/2) with liver microsomes
Procedure: as §1

DPP IV = DPP IV (Homo sapiens, UniProt P27487); assay: Stability against DPP IV enzyme; assay type: in vitro ADME; conditions: 2 μM, 37° C.; for half-life: read-out: half-life (t1/2) with DPP-IV enzyme
Procedure: as §1

[3] = Stability in simulated gastric fluid; assay type: in vitro ADME; conditions: 2 μM, 37° C., pH 1.5, pepsin; for half-life: simulated gi fluid, read-out: half-life (t1/2) in simulated gastric fluid
Procedure: as §1

[4] = Stability in human plasma; assay type: in vitro ADME; conditions: 2 μM, 37° C.; for half-life: human, plasma, read-out: half-life (t1/2) in human plasma
Procedure: as §1

DPP IV, sequence (P27487 whole entry, species assumed): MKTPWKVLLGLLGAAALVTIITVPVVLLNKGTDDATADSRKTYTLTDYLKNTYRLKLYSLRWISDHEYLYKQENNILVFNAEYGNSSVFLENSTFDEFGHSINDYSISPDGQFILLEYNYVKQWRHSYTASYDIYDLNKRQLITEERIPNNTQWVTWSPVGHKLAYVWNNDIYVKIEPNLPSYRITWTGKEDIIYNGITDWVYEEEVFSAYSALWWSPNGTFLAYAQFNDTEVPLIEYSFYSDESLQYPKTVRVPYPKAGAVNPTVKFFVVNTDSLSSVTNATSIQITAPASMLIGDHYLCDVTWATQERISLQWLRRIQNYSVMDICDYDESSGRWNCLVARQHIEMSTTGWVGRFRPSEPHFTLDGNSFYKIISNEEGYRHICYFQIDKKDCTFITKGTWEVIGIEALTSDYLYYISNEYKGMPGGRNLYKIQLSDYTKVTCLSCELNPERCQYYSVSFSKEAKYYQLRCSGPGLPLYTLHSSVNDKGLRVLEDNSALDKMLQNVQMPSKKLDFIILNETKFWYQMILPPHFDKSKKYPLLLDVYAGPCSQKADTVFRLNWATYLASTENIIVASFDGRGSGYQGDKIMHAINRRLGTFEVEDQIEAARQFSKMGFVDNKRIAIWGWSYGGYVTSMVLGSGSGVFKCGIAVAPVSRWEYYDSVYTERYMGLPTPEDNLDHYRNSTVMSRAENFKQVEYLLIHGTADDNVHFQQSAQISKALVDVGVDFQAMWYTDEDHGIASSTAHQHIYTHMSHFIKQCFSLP
T1 sequence (P43220 24-463): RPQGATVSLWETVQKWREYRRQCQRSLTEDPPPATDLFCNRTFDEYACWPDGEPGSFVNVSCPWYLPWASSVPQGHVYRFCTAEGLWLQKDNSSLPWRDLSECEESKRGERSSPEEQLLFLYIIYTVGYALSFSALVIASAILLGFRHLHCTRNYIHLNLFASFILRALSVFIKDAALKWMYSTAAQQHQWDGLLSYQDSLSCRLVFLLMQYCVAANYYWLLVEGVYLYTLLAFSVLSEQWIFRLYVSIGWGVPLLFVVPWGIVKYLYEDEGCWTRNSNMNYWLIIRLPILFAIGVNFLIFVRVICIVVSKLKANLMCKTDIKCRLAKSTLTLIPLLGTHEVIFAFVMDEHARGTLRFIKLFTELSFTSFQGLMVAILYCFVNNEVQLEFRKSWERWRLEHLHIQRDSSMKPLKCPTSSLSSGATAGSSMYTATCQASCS

Row | % degradation in 24 h when incubated with simulated intestinal fluid [1] [%] | half-life [1] [h] | Human GLP-1 R activity (cAMP release), % activity with respect to control (Human GLP-1 receptor; 1 nM test compound) [%] | Human GLP-1 R activity (cAMP release), % activity with respect to control (Human GLP-1 receptor; 10 nM test compound) [%] | Human GLP-1 R activity (cAMP release), % activity with respect to control (Human GLP-1 receptor; 100 nM test compound) [%] | Human GLP-1 R activity (cAMP release), % activity with respect to control (Human GLP-1 receptor; 1 μM test compound) [%] | Human GLP-1 R activity (cAMP release), % activity with respect to control (Human GLP-1 receptor; 10 μM test compound) [%] | half-life (t1/2) with liver microsomes [2] | % degradation in 24 h when incubated with liver microsomes [2] [%] | % degradation in 24 h when incubated with DPP-IV enzyme (DPP IV) [%] | half-life (DPP IV) [h] | % degradation in 24 h when incubated with simulated gastric fluid [3] [%] | half-life [3] [h] | % degradation in 24 h when incubated with human plasma [4] [%] | half-life [4] [h] | half-life [2] [h] | Structure (SMILES)
1 | 00 | > 24 | 93 ± 0.11 | 99 ± 0.09 | 99 ± 0.06 | 99 ± 0.14 | 99 ± 0.19 | (5) h | 33 | 00 | > 24 | 00 | > 24 | 00 | > 24 | – | CCc1cc(OC)ccc1-c1ccc(CC(NC(=O)[C@H](CC(=O)O)NC(=O)[C@H](CO)NC(=O)[C@@H](NC(=O)C(C)(Cc2ccccc2F)NC(=O)[C@@H](NC(=O)CNC(=O)[C@H](CCC(N)=O)NC(=O)C(C)(C)NC(=O)[C@@H](N)Cc2c[nH]cn2)[C@@H](C)O)[C@@H](C)O)C(=O)NC(Cc2ccc(-c3ccccc3C)nc2)C(N)=O)cc1 (single isomer, unassigned) [compound 30]
2 | 00 | > 24 | 99 ± 0.11 | 99 ± 0.13 | 99 ± 0.16 | 99 ± 0.06 | 99 ± 0.10 | (5) h | 33 | 00 | > 24 | 00 | > 24 | 00 | > 24 | – | CCc1cc(OC)ccc1-c1ccc(CC(NC(=O)[C@H](CC(=O)O)NC(=O)[C@H](CO)NC(=O)[C@@H](NC(=O)C(C)(Cc2ccccc2F)NC(=O)[C@@H](NC(=O)CNC(=O)[C@H](CCC(N)=O)NC(=O)C2(NC(=O)[C@@H](N)Cc3c[nH]cn3)CC2)[C@@H](C)O)[C@@H](C)O)C(=O)NC(Cc2ccc(-c3ccccc3C)cc2)C(N)=O)cc1 (single isomer, unassigned) [compound 33]
3 | 00 | > 24 | 69 ± 0.09 | 98 ± 0.07 | 99 ± 0.04 | 99 ± 0.01 | 99 ± 0.08 | – | 84 | 00 | > 24 | 43 | 4 | 00 | > 24 | 2 | CCc1cc(OC)ccc1-c1ccc(CC(NC(=O)[C@H](CC(=O)O)NC(=O)[C@H](CO)NC(=O)[C@@H](NC(=O)[C@H](Cc2ccccc2)NC(=O)[C@@H](NC(=O)CNC(=O)[C@H](CCC(N)=O)NC(=O)C(C)(C)NC(=O)[C@@H](N)Cc2c[nH]cn2)[C@@H](C)O)[C@@H](C)O)C(=O)NC(Cc2ccc(-c3ccccc3C(F)(F)F)cc2)C(N)=O)cc1 (single isomer, unassigned) [compound 16]
4 | 00 | > 24 | 96 ± 0.02 | 99 ± 0.46 | 99 ± 0.41 | 99 ± 0.66 | 99 ± 0.03 | – | 84 | 00 | > 24 | 43 | 4 | 00 | > 24 | 2 | CCc1cc(OC)ccc1-c1ccc(CC(NC(=O)[C@H](CC(=O)O)NC(=O)[C@H](CO)NC(=O)[C@@H](NC(=O)[C@H](Cc2ccccc2)NC(=O)[C@@H](NC(=O)CNC(=O)[C@H](CCC(N)=O)NC(=O)C2(NC(=O)[C@@H](N)Cc3c[nH]cn3)CC2)[C@@H](C)O)[C@@H](C)O)C(=O)NC(Cc2ccc(-c3ccccc3F)cc2)C(N)=O)cc1 (single isomer, unassigned) [compound 19]
5 | 00 | > 24 | 66 ± 0.022 | 97 ± 0.46 | 99 ± 0.41 | 99 ± 0.66 | 99 ± 0.03 | – | 85 | 00 | > 24 | 45 | 4 | 00 | > 24 | 2 | CCc1cc(OC)ccc1-c1ccc(CC(NC(=O)[C@H](CC(=O)O)NC(=O)[C@H](CO)NC(=O)[C@@H](NC(=O)[C@H](Cc2ccccc2)NC(=O)[C@@H](NC(=O)CNC(=O)[C@H](CCC(N)=O)NC(=O)C(C)(C)NC(=O)[C@@H](N)Cc2c[nH]cn2)[C@@H](C)O)[C@@H](C)O)C(=O)NC(Cc2ccc(-c3ccccc3F)cc2)C(N)=O)cc1 (single isomer, unassigned) [compound 15]
6 | 00 | > 24 | 78 ± 0.12 | 99 ± 0.15 | 99 ± 0.18 | 99 ± 0.03 | 99 ± 0.09 | – | 82 | 00 | > 24 | 49 | 4 | 00 | > 24 | 2 | CCc1cc(OC)ccc1-c1ccc(CC(NC(=O)[C@H](CC(=O)O)NC(=O)[C@H](CO)NC(=O)[C@@H](NC(=O)[C@H](Cc2ccccc2)NC(=O)[C@@H](NC(=O)CNC(=O)[C@H](CCC(N)=O)NC(=O)C2(NC(=O)[C@@H](N)Cc3c[nH]cn3)CC2)[C@@H](C)O)[C@@H](C)O)C(=O)NC(Cc2ccc(-c3ccccc3C)cc2)C(N)=O)cc1 (single isomer, unassigned) [compound 17]
7 | 00 | > 24 | 99 ± 0.06 | 99 ± 0.06 | 99 ± 0.08 | 99 ± 0.10 | 99 ± 0.12 | (5) h | 32 | 00 | > 24 | 00 | > 24 | 00 | > 24 | – | CCc1cc(OC)ccc1-c1ccc(CC(NC(=O)[C@H](CC(=O)O)NC(=O)[C@H](CO)NC(=O)[C@@H](NC(=O)C(C)(Cc2ccccc2F)NC(=O)[C@@H](NC(=O)CNC(=O)[C@H](CCC(N)=O)NC(=O)C(C)(C)NC(=O)[C@@H](N)Cc2c[nH]cn2)[C@@H](C)O)[C@@H](C)O)C(=O)NC(Cc2ccc(-c3ccccc3C(F)(F)F)cc2)C(N)=O)cc1 (single isomer, unassigned) [compound 32]
